Source: ChEMBL document CHEMBL5212743, “Selectivity Literature for EUbOPEN Chemogenomics Library wave 3” (2023)
Values belong to the molecule of their own block, whether it stands above or below them.

How the values were obtained:
[1] = target: T1, Phosphatidylinositol 5-phosphate 4-kinase type-2 gamma (Homo sapiens) (UniProt Q8TBX8); assay: Selectivity interaction (KinomeScan (DiscoverX)) EUB0000169b PIP4K2C; details: at 1 µM
T1 sequence (whole entry): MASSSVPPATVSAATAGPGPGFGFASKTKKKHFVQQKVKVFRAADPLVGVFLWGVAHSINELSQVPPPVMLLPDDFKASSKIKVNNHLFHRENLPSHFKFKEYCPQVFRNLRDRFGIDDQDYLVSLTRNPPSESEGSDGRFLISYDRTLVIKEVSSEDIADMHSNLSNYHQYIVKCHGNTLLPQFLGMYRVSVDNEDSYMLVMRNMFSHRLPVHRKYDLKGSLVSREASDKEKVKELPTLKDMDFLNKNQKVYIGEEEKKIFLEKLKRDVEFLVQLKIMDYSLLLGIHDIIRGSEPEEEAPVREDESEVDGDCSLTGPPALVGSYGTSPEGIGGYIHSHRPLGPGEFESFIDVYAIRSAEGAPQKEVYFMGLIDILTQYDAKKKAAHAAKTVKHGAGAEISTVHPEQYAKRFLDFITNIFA

[2] = target: Cyclin-dependent kinase 2 (Homo sapiens, UniProt P24941); assay: Selectivity interaction (Kinase panel (enzymatic assay)) EUB0000698a CDK2
[3] = target: T2, Phosphatidylinositol 5-phosphate 4-kinase type-2 beta (Homo sapiens) (UniProt P78356); assay: Selectivity interaction (KinomeScan (DiscoverX)) EUB0000698a PIP4K2B; details: at 10 µM
T2 sequence (whole entry): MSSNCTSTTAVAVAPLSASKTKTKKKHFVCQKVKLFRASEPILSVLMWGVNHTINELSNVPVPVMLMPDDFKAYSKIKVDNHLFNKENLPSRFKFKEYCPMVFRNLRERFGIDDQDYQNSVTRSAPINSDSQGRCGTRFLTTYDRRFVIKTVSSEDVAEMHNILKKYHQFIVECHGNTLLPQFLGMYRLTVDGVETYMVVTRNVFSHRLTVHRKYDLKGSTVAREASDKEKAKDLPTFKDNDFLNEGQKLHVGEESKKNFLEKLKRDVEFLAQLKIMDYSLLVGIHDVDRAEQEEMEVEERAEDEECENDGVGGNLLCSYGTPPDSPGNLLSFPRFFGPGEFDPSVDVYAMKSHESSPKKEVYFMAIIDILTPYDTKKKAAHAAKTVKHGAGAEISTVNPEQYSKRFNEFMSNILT

[4] = target: T3, Mitogen-activated protein kinase kinase kinase 19 (Homo sapiens) (UniProt Q56UN5); assay: Selectivity interaction (KinomeScan (DiscoverX)) EUB0000702a MAP3K19; details: at 1 µM
T3 sequence (whole entry): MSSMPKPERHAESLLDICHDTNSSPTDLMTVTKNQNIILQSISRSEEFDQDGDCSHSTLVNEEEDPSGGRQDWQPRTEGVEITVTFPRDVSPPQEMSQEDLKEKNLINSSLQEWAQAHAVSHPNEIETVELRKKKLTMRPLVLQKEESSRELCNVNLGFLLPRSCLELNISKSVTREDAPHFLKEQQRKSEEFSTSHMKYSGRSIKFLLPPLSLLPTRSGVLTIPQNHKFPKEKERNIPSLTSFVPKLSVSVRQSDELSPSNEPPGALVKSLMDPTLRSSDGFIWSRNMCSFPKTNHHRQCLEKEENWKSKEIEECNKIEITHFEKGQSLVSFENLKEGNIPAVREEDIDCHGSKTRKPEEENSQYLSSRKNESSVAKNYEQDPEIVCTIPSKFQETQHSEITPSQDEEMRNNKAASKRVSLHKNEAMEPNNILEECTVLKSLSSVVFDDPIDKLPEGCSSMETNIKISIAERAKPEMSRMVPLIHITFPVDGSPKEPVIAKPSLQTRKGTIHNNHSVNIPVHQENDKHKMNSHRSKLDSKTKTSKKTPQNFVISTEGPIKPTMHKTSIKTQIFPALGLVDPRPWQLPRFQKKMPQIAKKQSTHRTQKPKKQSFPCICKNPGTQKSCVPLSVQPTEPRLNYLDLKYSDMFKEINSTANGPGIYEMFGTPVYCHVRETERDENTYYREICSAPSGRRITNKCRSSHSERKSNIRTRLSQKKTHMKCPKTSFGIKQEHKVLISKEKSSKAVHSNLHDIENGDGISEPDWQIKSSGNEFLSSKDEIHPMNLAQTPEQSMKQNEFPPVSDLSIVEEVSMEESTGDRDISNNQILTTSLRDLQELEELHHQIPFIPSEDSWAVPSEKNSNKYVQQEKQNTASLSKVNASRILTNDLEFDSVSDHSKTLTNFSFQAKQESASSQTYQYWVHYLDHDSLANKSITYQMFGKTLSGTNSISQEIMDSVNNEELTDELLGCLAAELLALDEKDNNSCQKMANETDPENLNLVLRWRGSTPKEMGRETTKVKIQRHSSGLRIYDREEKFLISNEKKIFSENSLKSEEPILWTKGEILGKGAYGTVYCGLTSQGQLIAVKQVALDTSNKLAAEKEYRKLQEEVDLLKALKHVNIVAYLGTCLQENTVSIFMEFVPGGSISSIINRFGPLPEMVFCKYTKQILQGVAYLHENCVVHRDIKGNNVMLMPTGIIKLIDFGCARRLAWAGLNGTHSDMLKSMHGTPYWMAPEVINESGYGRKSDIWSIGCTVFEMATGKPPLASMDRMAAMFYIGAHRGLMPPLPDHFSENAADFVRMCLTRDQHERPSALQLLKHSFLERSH

[5] = target: Tyrosine-protein kinase SYK (Homo sapiens, UniProt P43405); assay: Selectivity interaction (KinomeScan (DiscoverX)) EUB0000702a SYK; details: at 1 µM
[6] = target: Serine/threonine-protein kinase 16 (Homo sapiens, UniProt O75716); assay: Selectivity interaction (KinomeScan (DiscoverX)) EUB0000702a STK16; details: at 1 µM
[7] = target: High affinity nerve growth factor receptor (Homo sapiens, UniProt P04629); assay: Selectivity interaction (KinomeScan (DiscoverX)) EUB0000702a NTRK1; details: at 1 µM
[8] = tested on: Leucine-rich repeat serine/threonine-protein kinase 2 (Homo sapiens), Q5S007 [G2019S]; assay: Selectivity interaction (KinomeScan (DiscoverX)) EUB0000702a LRRK2; details: at 1 µM
[9] = target: Serine/threonine-protein kinase 10 (Homo sapiens) (UniProt O94804); details: at 1 µM
[10] = target: Tyrosine-protein kinase Blk (Homo sapiens, UniProt P51451); details: at 1 µM
[11] = target: Mitogen-activated protein kinase kinase kinase 19 (Homo sapiens, UniProt Q56UN5); assay: Selectivity interaction (KinomeScan (DiscoverX, competition-binding assay)) EUB0000305b MAP3K19
[12] = target: Serine/threonine-protein kinase 17A (Homo sapiens, UniProt Q9UEE5); assay: Selectivity interaction (KinomeScan (DiscoverX, competition-binding assay)) EUB0000305b STK17A
Serine/threonine-protein kinase 17A, sequence (Q9UEE5 whole entry): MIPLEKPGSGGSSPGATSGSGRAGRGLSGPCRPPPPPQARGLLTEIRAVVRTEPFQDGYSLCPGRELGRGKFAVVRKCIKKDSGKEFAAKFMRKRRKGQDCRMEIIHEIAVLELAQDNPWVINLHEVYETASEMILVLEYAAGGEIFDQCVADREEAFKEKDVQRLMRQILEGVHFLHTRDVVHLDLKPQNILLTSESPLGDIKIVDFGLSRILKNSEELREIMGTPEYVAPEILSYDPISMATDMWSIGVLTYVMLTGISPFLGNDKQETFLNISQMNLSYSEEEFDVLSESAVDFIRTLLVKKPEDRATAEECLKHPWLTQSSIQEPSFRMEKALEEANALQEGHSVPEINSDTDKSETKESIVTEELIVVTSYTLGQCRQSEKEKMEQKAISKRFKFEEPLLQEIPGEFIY

Leucine-rich repeat serine/threonine-protein kinase 2 (Homo sapiens), Q5S007 [G2019S], sequence (Q5S007 whole entry G2019S): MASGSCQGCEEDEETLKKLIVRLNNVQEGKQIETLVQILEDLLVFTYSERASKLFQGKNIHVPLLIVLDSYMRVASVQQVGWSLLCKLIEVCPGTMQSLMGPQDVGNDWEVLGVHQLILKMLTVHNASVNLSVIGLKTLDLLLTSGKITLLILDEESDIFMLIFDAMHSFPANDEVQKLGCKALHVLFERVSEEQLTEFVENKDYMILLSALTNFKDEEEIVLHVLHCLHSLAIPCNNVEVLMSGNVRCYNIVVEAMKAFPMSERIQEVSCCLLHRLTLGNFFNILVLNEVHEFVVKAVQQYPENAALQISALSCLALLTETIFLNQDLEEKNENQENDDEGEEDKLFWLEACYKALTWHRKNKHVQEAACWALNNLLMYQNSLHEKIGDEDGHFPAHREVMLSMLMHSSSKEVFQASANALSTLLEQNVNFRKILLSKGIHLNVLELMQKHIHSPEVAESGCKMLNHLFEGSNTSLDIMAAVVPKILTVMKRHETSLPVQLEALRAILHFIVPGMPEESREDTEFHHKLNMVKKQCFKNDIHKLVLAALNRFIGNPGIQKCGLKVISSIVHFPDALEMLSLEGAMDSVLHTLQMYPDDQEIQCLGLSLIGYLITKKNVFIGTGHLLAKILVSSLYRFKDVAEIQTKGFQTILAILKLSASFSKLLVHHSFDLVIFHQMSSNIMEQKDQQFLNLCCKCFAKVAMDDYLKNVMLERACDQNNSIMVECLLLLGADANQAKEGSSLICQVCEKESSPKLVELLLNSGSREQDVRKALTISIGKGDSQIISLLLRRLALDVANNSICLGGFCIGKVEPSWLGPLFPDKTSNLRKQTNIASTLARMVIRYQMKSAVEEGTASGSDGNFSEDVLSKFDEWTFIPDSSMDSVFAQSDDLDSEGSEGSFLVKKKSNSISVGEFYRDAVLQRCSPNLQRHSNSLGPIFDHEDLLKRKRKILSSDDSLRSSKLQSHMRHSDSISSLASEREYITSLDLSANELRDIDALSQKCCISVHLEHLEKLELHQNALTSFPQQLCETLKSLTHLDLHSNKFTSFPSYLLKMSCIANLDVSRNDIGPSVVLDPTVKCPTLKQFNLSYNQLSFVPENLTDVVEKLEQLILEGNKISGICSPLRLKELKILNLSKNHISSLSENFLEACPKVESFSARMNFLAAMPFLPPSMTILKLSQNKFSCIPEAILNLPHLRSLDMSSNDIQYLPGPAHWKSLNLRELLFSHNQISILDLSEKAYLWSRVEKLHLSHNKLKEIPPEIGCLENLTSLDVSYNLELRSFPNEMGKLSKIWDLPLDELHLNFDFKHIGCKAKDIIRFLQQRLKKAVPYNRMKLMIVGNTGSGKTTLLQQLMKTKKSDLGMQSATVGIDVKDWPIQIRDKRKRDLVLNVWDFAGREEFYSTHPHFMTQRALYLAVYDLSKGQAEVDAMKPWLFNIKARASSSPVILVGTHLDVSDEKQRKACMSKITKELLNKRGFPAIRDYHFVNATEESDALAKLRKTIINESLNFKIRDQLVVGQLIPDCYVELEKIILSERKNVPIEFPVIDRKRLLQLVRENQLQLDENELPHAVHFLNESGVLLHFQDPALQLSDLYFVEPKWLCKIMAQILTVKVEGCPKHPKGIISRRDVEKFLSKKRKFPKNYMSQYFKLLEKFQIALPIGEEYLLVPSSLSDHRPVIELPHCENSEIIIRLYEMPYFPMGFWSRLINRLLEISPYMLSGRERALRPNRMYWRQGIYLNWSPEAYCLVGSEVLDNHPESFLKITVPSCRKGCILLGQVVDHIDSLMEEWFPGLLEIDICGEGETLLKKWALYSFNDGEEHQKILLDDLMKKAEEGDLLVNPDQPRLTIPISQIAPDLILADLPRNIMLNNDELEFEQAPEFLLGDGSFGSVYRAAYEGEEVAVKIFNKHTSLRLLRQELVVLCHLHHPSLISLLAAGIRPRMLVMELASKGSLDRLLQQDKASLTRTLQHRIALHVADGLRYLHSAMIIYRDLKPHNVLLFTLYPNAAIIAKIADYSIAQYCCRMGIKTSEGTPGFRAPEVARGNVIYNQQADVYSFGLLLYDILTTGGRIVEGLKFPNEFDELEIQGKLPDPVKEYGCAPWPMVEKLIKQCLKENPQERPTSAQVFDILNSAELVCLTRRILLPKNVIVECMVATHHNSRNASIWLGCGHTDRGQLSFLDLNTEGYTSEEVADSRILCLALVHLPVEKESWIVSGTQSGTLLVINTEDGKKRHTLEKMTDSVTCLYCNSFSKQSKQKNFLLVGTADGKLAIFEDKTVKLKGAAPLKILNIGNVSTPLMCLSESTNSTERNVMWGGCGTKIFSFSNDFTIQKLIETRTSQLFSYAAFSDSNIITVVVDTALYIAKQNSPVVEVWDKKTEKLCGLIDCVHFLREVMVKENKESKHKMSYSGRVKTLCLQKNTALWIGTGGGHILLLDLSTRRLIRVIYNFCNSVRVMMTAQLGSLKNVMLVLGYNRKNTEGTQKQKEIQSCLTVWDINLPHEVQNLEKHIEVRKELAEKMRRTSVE
Serine/threonine-protein kinase 16, sequence (O75716 whole entry): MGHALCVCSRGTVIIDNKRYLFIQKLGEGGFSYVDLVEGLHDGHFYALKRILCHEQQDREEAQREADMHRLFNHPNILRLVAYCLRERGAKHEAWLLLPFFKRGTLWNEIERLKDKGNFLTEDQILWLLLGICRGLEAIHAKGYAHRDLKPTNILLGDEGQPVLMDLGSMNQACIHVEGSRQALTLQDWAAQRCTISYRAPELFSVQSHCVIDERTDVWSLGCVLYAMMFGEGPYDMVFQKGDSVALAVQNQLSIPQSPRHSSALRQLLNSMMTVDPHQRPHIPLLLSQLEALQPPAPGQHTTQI
High affinity nerve growth factor receptor, sequence (P04629 33-796 limits assumed): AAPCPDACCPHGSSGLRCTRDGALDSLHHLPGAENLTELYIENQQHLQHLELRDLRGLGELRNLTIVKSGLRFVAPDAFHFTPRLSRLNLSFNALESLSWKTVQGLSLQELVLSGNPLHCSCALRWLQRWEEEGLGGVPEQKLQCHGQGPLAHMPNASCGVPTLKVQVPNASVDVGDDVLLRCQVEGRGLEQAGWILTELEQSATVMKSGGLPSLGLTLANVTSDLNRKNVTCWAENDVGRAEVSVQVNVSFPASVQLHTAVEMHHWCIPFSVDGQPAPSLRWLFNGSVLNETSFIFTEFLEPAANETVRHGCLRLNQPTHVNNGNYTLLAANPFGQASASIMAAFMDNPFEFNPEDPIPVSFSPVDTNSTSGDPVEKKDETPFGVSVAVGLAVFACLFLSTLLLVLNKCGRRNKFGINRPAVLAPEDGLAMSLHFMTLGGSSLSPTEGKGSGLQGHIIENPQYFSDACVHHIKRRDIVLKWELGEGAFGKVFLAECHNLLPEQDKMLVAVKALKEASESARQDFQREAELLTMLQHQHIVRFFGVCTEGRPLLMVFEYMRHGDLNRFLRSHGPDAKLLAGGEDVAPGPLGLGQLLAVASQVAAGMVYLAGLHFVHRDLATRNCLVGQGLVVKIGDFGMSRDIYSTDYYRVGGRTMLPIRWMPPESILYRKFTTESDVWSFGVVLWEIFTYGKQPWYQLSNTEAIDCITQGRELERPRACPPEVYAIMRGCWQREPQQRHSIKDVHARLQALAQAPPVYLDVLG
Serine/threonine-protein kinase 10 (Homo sapiens), sequence (O94804 whole entry, looked up): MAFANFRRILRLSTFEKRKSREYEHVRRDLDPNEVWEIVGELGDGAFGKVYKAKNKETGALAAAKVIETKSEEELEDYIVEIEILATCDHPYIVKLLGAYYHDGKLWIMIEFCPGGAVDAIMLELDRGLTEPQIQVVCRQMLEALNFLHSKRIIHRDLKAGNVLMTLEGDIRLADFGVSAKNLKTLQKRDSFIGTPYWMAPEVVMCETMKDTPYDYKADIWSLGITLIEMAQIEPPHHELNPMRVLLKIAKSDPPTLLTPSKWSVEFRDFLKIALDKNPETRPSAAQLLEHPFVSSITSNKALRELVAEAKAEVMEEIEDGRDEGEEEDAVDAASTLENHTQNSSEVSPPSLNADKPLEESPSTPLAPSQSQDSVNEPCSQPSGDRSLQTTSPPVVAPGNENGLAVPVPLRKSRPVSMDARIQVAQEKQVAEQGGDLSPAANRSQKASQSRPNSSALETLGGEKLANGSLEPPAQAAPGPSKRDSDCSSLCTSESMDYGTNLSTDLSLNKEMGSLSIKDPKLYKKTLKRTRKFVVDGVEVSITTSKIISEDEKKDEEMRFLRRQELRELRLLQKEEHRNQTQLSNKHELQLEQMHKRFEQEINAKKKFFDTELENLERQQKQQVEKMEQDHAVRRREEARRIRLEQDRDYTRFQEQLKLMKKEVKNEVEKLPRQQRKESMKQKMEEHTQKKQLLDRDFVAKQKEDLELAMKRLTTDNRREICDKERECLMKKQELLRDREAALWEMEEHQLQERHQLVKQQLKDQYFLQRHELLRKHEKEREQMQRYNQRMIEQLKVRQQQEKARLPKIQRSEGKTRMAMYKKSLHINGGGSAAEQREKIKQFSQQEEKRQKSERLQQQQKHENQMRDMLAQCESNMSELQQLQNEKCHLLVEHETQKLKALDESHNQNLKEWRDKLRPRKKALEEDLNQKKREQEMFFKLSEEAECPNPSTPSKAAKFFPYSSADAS

% of control [1]: 4.2%
Structure (SMILES): CC[C@@H]1C(=O)N(C)c2cnc(Nc3ccc(C(=O)NC4CCN(C)CC4)cc3OC)nc2N1C1CCCC1

IC50 [2]: 7600 nM
% of control [3]: 6.6%
Structure (SMILES): COc1cc2ncn(-c3cc(OCc4ccccc4C(F)(F)F)c(C(N)=O)s3)c2cc1OC [GW843682X]

% of control [4]: 0.4%
% of control [5]: 5.7%
% of control [6]: 1.5%
% of control [7]: 10%
% of control [8]: 7.3%
Structure (SMILES): CN(c1ccnc(CNc2nc(Nc3ccc4c(c3)CC(=O)N4)ncc2C(F)(F)F)n1)S(C)(=O)=O [PF-00911705]

Structure (SMILES): CCOc1cn(-c2ccc(F)cc2C)nc1C(=O)Nc1ccc(Oc2ccnc3cc(OC)c(OC)cc23)c(F)c1
% of control [9]: < 10%
% of control [10]: < 10%

Kd [11]: 9.6 nM
Kd [12]: 74 nM
Structure (SMILES): C[C@H](c1ccnc(Nc2nc3ccc(-c4cc(N(C)C)ncn4)cc3[nH]2)c1)N1CCN(C(=O)CC(F)(F)F)CC1 [BAY-985]
